The values below come from patent US20230348401A1, “Inhibitors of Glucose-6-phosphate Dehydrogenase and Uses Thereof” (The Trustees of Princeton University, priority 2020, published 2023).

Values joined by “and” are separate entries in the source; they are usually repeats but may differ in a detail not shown here. Identical values can stand only once.

Sequence of G6PD (P11413 28-515): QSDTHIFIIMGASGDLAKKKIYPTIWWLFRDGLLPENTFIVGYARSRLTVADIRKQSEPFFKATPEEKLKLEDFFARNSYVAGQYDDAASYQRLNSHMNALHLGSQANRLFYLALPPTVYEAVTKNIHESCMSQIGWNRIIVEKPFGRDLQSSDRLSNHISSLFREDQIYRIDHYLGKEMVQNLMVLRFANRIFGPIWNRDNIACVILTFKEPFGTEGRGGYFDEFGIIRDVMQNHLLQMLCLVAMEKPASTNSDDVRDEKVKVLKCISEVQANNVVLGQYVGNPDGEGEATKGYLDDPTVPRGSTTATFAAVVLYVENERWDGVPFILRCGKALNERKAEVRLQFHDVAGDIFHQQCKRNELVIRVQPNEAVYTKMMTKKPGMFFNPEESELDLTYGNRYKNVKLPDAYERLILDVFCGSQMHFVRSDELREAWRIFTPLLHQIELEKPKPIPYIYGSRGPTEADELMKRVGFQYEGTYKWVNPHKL

One assay has as its target G6PD (Homo sapiens, UniProt P11413). Put plainly: G6PD enzymatic activity by diaphorase-coupled assay.
Conditions: not given
The term IC50 denotes the concentration that inhibits the measured activity by half. `C#CCC1(COc2cc(C#N)cc(Nc3ncc4c(n3)CCCCC4=O)c2)N=N1` [Compound 0095]: the IC50 was more than 1000 µM.

Take `COC(=O)c1ccc(COc2cc(C#N)cc(Nc3ncc4c(n3)CCCCC4=O)c2)cc1` [Compound 0096]: the IC50 is more than 1000 µM. The same measure, in the same setting: the value for `N#Cc1cc(Nc2ncc3c(n2)CCCCC3=O)cc(OCC2CC2)c1` [Compound 0097] was less than 1 µM. On the same count and under the same terms, the value for `N#Cc1cc(Nc2ncc3c(n2)CCCCC3=O)cc(OCC2CCC2)c1` [Compound 0098] was 1 to 1000 µM. Same read-out and setting: the value for `N#Cc1cc(Nc2ncc3c(n2)CCCCC3=O)cc(OCC2CCCC2)c1` [Compound 0099] was 1 to 1000 µM. In the case of `N#Cc1cc(Nc2ncc3c(n2)CCCCC3=O)cc(OC(c2ccccc2)c2ccccc2)c1` [Compound 0100], the IC50 is 1 to 1000 µM.

`CCC(CC)Oc1cc(C#N)cc(Nc2ncc3c(n2)CCCCC3=O)c1` [Compound 0101] registered an IC50 of 1 to 1000 µM. Consider `N#Cc1cc(Nc2ncc3c(n2)CCCCC3=O)cc(OCCc2ccccc2)c1` [Compound 0103], for which the IC50 was less than 1 µM. In the case of `N#Cc1cc(Nc2ncc3c(n2)CCCCC3=O)cc(OCC23C[C@H]4C[C@@H](C2)C[C@@H](C3)C4)c1` [Compound 0105], the IC50 is more than 1000 µM.

Molecule `CC(C)(C)COc1cc(C#N)cc(Nc2ncc3c(n2)CCCCC3=O)c1` [Compound 0106] had an IC50 of more than 1000 µM. For the molecule `N#Cc1cc(Nc2ncc3c(n2)CCCCC3=O)cc(OCc2cccnc2)c1` [Compound 0118], the IC50 was less than 1 µM. Still for that read-out and setting: the value for `N#Cc1cc(Nc2ncc3c(n2)CCCCC3=O)cc(OCc2ccccn2)c1` [Compound 0121] was less than 1 µM; that for `COc1ccccc1COc1cc(C#N)cc(Nc2ncc3c(n2)CCCCC3=O)c1` [Compound 0122] was less than 1 µM; that for `N#Cc1cc(Nc2ncc3c(n2)CCCCC3=O)cc(OCc2cnoc2)c1` [Compound 0123] was less than 1 µM. With `N#Cc1cc(Nc2ncc3c(n2)CCCCC3=O)cc(OCC2CCOCC2)c1` [Compound 0124], the IC50 is less than 1 µM. `COCCOc1cc(C#N)cc(Nc2ncc3c(n2)CCCCC3=O)c1` [Compound 0125]: the 50% inhibitory concentration (IC50) is less than 1 µM. `N#Cc1cc(Nc2ncc3c(n2)CCCCC3=O)cc(OCCN)c1` [Compound 0128] registered an IC50 of 1 to 1000 µM.

As for `N#Cc1cc(Nc2ncc3c(n2)CCCNC3=O)cs1` [Compound 0135], the IC50 was in the range of 1 to 1000 µM. `N#Cc1cc(Nc2ncc3c(n2)CCCCC3C(C#N)C#N)cs1` (stereo not drawn) [Compound 0136] gave an IC50 of 1 to 1000 µM.

On to `CCCc1cc(C#N)cc(Nc2ncc3c(n2)CCCCC3=O)c1` [Compound 0161], for which the IC50 lay within 1 to 1000 µM. Regarding `CCCCc1cc(C#N)cc(Nc2ncc3c(n2)CCCCC3=O)c1` [Compound 0162], the IC50 lay within 1 to 1000 µM.

The molecule `N#Cc1cc(CS(=O)(=O)C(F)(F)F)cc(Nc2ncc3c(n2)CCCCC3=O)c1` [Compound 0163] gave an IC50 of 1 to 1000 µM. In the case of `Cc1cccc(Nc2ccc3c(n2)CCCC3=O)c1` [KG-0052], the IC50 is more than 1000 µM.

In turn, `Cc1cccc(Nc2ccc3c(c2)CCCC3=O)c1` [KG-0054] came in with an IC50 of more than 1000 µM. As for `Cc1cccc(Nc2ncc3c(n2)CCNC3=O)c1` [KG-0055-0], the IC50 lay in the range of 1 to 1000 µM.

The molecule `Cc1cccc(Nc2ccc3c(c2)CCNC3=O)c1` [KG-0057] yielded an IC50 of more than 1000 µM. With `Cc1cccc(Oc2ncc3c(n2)CCCC3=O)c1` [KG-0141-0], the IC50 is more than 1000 µM.

`O=C1CCCc2nc(NCc3cccnc3)ncc21` [KG-0162-0] returned a concentration for half-maximal inhibition (IC50) of 1 to 1000 µM.

`O=C1CCCc2nc(NCc3ccncc3)ncc21` [KG-0163-0] gave an IC50 of 1 to 1000 µM.

`N#Cc1cccc(Nc2ncc3c(n2)COCC3=O)c1` [KG-0190-0] showed an IC50 of 1 to 1000 µM. In the case of `N#Cc1cncc(Nc2ncc3c(n2)CCCC3=O)c1` [KG-0198-0], the IC50 lay within 1 to 1000 µM. Same read-out and setting: the value for `O=C1CCCc2nc(Nc3ncco3)ncc21` [KG-0213-0] was more than 1000 µM. Molecule `O=C1CCCc2nc(Nc3nccs3)ncc21` [KG-0214-0] registered an IC50 of 1 to 1000 µM. The same measure, in the same setting: the value for `Cc1csc(Nc2ncc3c(n2)CCCC3=O)n1` [KG-0219-0] was 1 to 1000 µM; that for `Cc1cc(Nc2ncc3c(n2)CCCC3=O)no1` [KG-0220-0] was 1 to 1000 µM.

The same assay, now with this note: Normalized in vitro IC50, Table 1; diaphorase-coupled biochemical assay, normalization to an intraplate control.
With `Cc1cccc(Nc2ncc3c(n2)CCCC3=O)c1` [KG-0051-0], the IC50 lay within 1 to 1000 µM. Consider `Cc1ccccc1Nc1ncc2c(n1)CCCC2=O` [KG-0056-0A], for which the IC50 lay within 1 to 1000 µM. On the same count and under the same terms, the value for `Cc1cccc(Nc2ncc3c(n2)CCCC3=O)c1C` [KG-0060-0] was more than 1000 µM. Consider `O=C1CCCc2nc(Nc3cccc(F)c3)ncc21` [KG-0061-0], for which the IC50 was less than 1 µM.

The molecule `N#Cc1cccc(Nc2ncc3c(n2)CCCC3=O)c1` [KG-0062-0] gave an IC50 of less than 1 µM. Still for that read-out and setting: in the case of `O=C1CCCc2nc(Nc3cccc(C(F)(F)F)c3)ncc21` [KG-0063-0] it was 1 to 1000 µM. Take `COC(=O)c1cccc(Nc2ncc3c(n2)CCCC3=O)c1` [KG-0064-0]: the half-maximal inhibitory concentration (IC50) lay in the range of 1 to 1000 µM. Turning to `O=C1CCCc2nc(Nc3cccc(Cl)c3)ncc21` [KG-0065-0], the IC50 was less than 1 µM. Same read-out and setting: in the case of `Cc1cccc(Nc2ncc3c(n2)CCC3=O)c1` [KG-0138-0] it was 1 to 1000 µM; in that of `O=C1CCCc2nc(NCc3ccccc3)ncc21` [KG-0164-0], 1 to 1000 µM. On to `CC(Nc1ncc2c(n1)CCCC2=O)c1ccccc1` (stereo not drawn) [KG-0165-0], for which the IC50 was 1 to 1000 µM and > 1000 µM. For the molecule `O=C1CCCc2nc(Nc3ccc4cc[nH]c4c3)ncc21` [KG-0166-0], the IC50 fell in the range of 1 to 1000 µM. In turn, `O=C1CCCc2nc(Nc3cccc(Br)c3)ncc21` [KG-0167-0A] registered an IC50 of 1 to 1000 µM.

In the case of `O=C1CCCc2nc(Nc3cccc(Br)c3)ncc21` [KG-0167], the IC50 fell in the range of 1 to 1000 µM. On to `O=C1CCCc2nc(Nc3ccc4[nH]ccc4c3)ncc21` [KG-0168-0], for which the IC50 fell in the range of 1 to 1000 µM. For the molecule `CN(c1cccc(C#N)c1)c1ncc2c(n1)CCCC2=O` [KG-0176], the IC50 was more than 1000 µM. `C#Cc1cccc(Nc2ncc3c(n2)CCCC3=O)c1` [KG-0183-0] returned an IC50 of 1 to 1000 µM. `N#Cc1cccc(Nc2ncc3c(n2)CCCCC3=O)c1` [KG-0184-0A] yielded an IC50 of less than 1 µM. In turn, `COc1cccc(Nc2ncc3c(n2)CCCC3=O)c1` [KG-0185-0] registered an IC50 of 1 to 1000 µM. Still for that read-out and setting: the value for `O=C1CCCc2nc(Nc3cccc(O)c3)ncc21` [KG-0186-0A] was less than 1 µM. `O=C1CCCc2nc(Nc3ccccc3)ncc21` [KG-0187-0] registered an IC50 of 1 to 1000 µM. Same read-out and setting: in the case of `Cc1ccc(Nc2ncc3c(n2)CCCC3=O)cc1C` [KG-0188-0] it was 1 to 1000 µM.

With `O=C1CCCc2nc(Nc3cccc(C4CC4)c3)ncc21` [KG-0203-0], the IC50 fell in the range of 1 to 1000 µM. `CC#Cc1cccc(Nc2ncc3c(n2)CCCC3=O)c1` [KG-0204-0] gave an IC50 of 1 to 1000 µM. Molecule `CC1CCc2nc(Nc3cccc(C#N)c3)ncc2C1=O` (stereo not drawn) [KG-0205-0] had an IC50 of less than 1 µM.

Take `N#Cc1cccc(Nc2ncc3c(n2)CCC(Br)C3=O)c1` (stereo not drawn) [KG-0206-0]: the IC50 is less than 1 µM. `O=C1CCCc2nc(Nc3nc4ccccc4[nH]3)ncc21` [KG-0209-0]: the IC50 was 1 to 1000 µM. Same read-out and setting: in the case of `O=C1CCCc2nc(Nc3nc4ccccc4s3)ncc21` [KG-0211-0] it was more than 1000 µM. On to `O=C1CCCc2nc(Nc3ccon3)ncc21` [KG-0215-0], for which the IC50 fell in the range of 1 to 1000 µM.

On to `O=C1CCCc2nc(Nc3cc[nH]n3)ncc21` [KG-0216-0], for which the IC50 is more than 1000 µM. For the molecule `O=C1CCCc2nc(Nc3ccc4nc[nH]c4c3)ncc21` [KG-0223-0], the IC50 fell in the range of 1 to 1000 µM.
